Test results taken from ChEMBL document CHEMBL5154806, “Synthesis and Profiling of Highly Selective Inhibitors of Methyltransferase DOT1L Based on Carbocyclic C-Nucleosides” (J Med Chem, 2022).
Active and inactive are the calls of the source. The calls are words filed in the database; no cut-off is given here.

Columns and labels:
[1] = Elimination rate constant in fasted BALB/c mouse at 5 mg/kg, iv administered upto 600 mins by HPLC-MS/MS analysis; type: ADME, organism-based; conditions: BALB/c, in vivo
[2] = AUC (0 to t) in fasted BALB/c mouse at 5 mg/kg, iv administered upto 600 mins by HPLC-MS/MS analysis; type: ADME, organism-based; set-up: time < 600 min, dose 5 mg/kg, route iv; conditions: in vivo
[3] = Volume of distribution in fasted BALB/c mouse at 20 mg/kg, iv administered upto 600 mins by HPLC-MS/MS analysis; type: ADME, organism-based; conditions: in vivo
[4] = AUC (0 to infinity) in fasted BALB/c mouse at 5 mg/kg, iv administered upto 600 mins by HPLC-MS/MS analysis; type: ADME, organism-based; set-up: dose 5 mg/kg, time < 600 min, route iv; conditions: in vivo
[5] = target: T1, Histone-lysine N-methyltransferase, H3 lysine-79 specific (Homo sapiens, UniProt Q8TEK3); test: Inhibition of human DOT1L by hotspot PMT activity assay
Target sequence in this assay (Q8TEK3 whole entry): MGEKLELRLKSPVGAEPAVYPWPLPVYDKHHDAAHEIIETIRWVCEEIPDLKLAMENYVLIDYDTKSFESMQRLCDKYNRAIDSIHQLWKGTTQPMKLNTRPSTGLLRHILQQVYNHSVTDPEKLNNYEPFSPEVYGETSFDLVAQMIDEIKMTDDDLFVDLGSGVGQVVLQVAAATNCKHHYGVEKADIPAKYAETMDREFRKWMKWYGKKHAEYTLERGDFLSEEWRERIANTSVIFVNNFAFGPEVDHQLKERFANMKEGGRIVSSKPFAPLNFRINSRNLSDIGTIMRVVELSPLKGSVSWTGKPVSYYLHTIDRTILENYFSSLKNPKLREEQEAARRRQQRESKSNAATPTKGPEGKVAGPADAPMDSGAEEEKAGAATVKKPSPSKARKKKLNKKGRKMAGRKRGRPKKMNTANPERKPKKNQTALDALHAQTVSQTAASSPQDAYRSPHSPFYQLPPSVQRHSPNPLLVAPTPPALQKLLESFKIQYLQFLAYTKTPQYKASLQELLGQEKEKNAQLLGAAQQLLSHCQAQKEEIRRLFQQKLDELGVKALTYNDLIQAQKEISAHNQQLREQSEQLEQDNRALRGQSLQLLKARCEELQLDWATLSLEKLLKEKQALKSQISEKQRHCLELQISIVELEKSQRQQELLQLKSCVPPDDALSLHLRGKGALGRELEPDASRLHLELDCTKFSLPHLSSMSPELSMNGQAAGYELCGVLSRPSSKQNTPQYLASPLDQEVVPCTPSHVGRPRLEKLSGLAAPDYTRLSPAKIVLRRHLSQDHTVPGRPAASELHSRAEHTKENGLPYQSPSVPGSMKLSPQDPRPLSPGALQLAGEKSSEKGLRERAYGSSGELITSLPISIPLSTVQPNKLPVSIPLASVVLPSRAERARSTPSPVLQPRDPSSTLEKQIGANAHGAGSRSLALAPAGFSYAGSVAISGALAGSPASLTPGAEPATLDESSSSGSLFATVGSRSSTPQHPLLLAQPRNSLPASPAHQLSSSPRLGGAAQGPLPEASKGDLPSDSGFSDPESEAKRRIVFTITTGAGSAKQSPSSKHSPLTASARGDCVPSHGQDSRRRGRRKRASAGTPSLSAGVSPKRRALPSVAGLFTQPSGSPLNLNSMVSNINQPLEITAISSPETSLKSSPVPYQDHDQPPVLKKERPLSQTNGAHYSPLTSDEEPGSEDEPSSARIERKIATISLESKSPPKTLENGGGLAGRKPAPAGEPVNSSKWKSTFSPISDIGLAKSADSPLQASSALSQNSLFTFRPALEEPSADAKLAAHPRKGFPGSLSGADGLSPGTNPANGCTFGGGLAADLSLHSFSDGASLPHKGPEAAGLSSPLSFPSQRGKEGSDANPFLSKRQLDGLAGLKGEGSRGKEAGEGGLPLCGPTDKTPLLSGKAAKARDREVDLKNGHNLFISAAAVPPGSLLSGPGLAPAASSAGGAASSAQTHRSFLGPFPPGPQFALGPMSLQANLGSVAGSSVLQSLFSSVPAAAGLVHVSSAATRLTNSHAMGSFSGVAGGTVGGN

[6] = AUC (0 to infinity) in fasted BALB/c mouse at 20 mg/kg, iv administered upto 600 mins by HPLC-MS/MS analysis; type: ADME, organism-based; set-up: dose 20 mg/kg, time < 600 min, route iv; conditions: in vivo
MV4-11 = test: Cytotoxicity against human MV4-11 cells assessed as reduction of cell viability up to 10 uM incubated for 72 hrs by celltiter-glo assay; type: functional, cell-based; conditions: MV4-11, 72 h
MOLM-13 [7] = test: Downregulation of HOXA9 gene in human MOLM-13 cells at 10 uM measured after 3 to 10 days by qPCR analysis; type: functional, cell-based; conditions: time 3-10 day
[8] = Tmax in fasted BALB/c mouse at 20 mg/kg, iv administered upto 600 mins by HPLC-MS/MS analysis; type: ADME, organism-based; conditions: in vivo
[9] = Clearance in fasted BALB/c mouse at 20 mg/kg, iv administered upto 600 mins by HPLC-MS/MS analysis; type: ADME, organism-based; conditions: in vivo
[10] = Elimination rate constant in fasted BALB/c mouse at 20 mg/kg, iv administered upto 600 mins by HPLC-MS/MS analysis; type: ADME, organism-based; conditions: in vivo
SUD4 = test: Cytotoxicity against human SU-DHL-4 cells assessed as reduction of cell viability at 20 to 40 uM incubated for 5 to 15 days by DiOC6/ propidium staining based flow cytometry analysis; type: functional; conditions: dose 20-40 µM, time 5-15 day
MOLM-13 [11] = test: Cytotoxicity against human MOLM-13 cells assessed as reduction of cell viability up to 10 uM incubated for 72 hrs by celltiter-glo assay; type: functional, cell-based; conditions: MOLM-13, 72 h
MOLM-13 [12] = test: Downregulation of MEIS1 gene in human MOLM-13 cells at 10 uM measured after 3 to 10 days by qPCR analysis; type: functional, cell-based; conditions: time 3-10 day
[13] = Cmax in fasted BALB/c mouse at 5 mg/kg, iv administered upto 600 mins by HPLC-MS/MS analysis; type: ADME, organism-based; set-up: time < 600 min, dose 5 mg/kg, route iv; conditions: in vivo
[14] = target: T1, Histone-lysine N-methyltransferase, H3 lysine-79 specific; test: Inhibition of DOT1L in human MOLM-13 cells assessed as decrease in H3K79 methylation at 1 to 10 uM using histone H3 as substrate incubated for 3 days by immunoblotting assay; type: cell-based; conditions: dose 1-10 µM, time 3.0 day, DDE = dose-dependent effect
Target sequence in this assay (Q8TEK3 whole entry, looked up): as the sequence (Q8TEK3 whole entry) above

[15] = target: T1, Histone-lysine N-methyltransferase, H3 lysine-79 specific; test: Inhibition of DOT1L in human SU-DHL-4 cells assessed as decrease in H3K79 methylation at 1 to 10 uM using histone H3 as substrate incubated for 5 days by immunoblotting assay; type: cell-based; conditions: dose 1-10 µM, time 5.0 day, DDE = dose-dependent effect
Target sequence in this assay (Q8TEK3 whole entry, looked up): as the sequence (Q8TEK3 whole entry) above

[16] = target: T1, Histone-lysine N-methyltransferase, H3 lysine-79 specific; test: Inhibition of DOT1L in human OCI-AML5 cells assessed as decrease in H3K79 methylation at 1 to 10 uM using histone H3 as substrate incubated for 5 days by immunoblotting assay; type: cell-based; conditions: dose 1-10 µM, time 5.0 day, DDE = dose-dependent effect
Target sequence in this assay (Q8TEK3 whole entry, looked up): as the sequence (Q8TEK3 whole entry) above

[17] = Acute toxicity in BALB/c mouse at 20 mg/kg,iv; type: organism-based; conditions: in vivo
[18] = Tmax in fasted BALB/c mouse at 5 mg/kg, iv administered upto 600 mins by HPLC-MS/MS analysis; type: ADME, organism-based; conditions: in vivo
OCI-AML-3 = test: Cytotoxicity against human OCI-AML-3 cells assessed as reduction of cell viability at 20 to 40 uM incubated for 5 to 15 days by DiOC6/ propidium staining based flow cytometry analysis; type: functional; conditions: dose 20-40 µM, time 5-15 day
[19] = Volume of distribution in fasted BALB/c mouse at 5 mg/kg, iv administered upto 600 mins by HPLC-MS/MS analysis; type: ADME, organism-based; conditions: in vivo
MOLM-13 [20] = test: Cytotoxicity against human MOLM-13 cells assessed as reduction of cell viability at 20 to 40 uM incubated for 5 to 15 days by DiOC6/ propidium staining based flow cytometry analysis; type: functional; conditions: dose 20-40 µM, time 5-15 day
[21] = Metabolic stability in BALB/c mouse liver microsomes assessed as parent compound remaining measured after 40 mins; type: ADME, Microsome; conditions: read-out: Stability
SK-N-MC = test: Cytotoxicity against human SK-N-MC cells assessed as reduction of cell viability up to 10 uM incubated for 72 hrs by celltiter-glo assay; type: functional, cell-based
SU-DHL-5 = test: Cytotoxicity against human SU-DHL-5 cells assessed as reduction of cell viability up to 10 uM incubated for 72 hrs by celltiter-glo assay; type: functional, cell-based; conditions: SU-DHL-5, 72 h
MOLM-13 [22] = test: Cytotoxicity against human MOLM-13 cells assessed as metabolic activity at 1 to 40 uM incubated for 10 to 15 days by WST-1 assay; type: functional, cell-based; conditions: dose 1-40 µM, time 10-15 day
[23] = target: T1, Histone-lysine N-methyltransferase, H3 lysine-79 specific; test: Binding affinity to human DOT1L assessed as binding free energy difference
Target sequence in this assay (Q8TEK3 whole entry, looked up): as the sequence (Q8TEK3 whole entry) above

[24] = Cmax in fasted BALB/c mouse at 20 mg/kg, iv administered upto 600 mins by HPLC-MS/MS analysis; type: ADME, organism-based; set-up: time < 600 min, dose 20 mg/kg, route iv; conditions: in vivo
[25] = Half life in fasted BALB/c mouse at 5 mg/kg, iv administered upto 600 mins by HPLC-MS/MS analysis; type: ADME, organism-based; conditions: BALB/c, in vivo
[26] = Half life in fasted BALB/c mouse at 20 mg/kg, iv administered upto 600 mins by HPLC-MS/MS analysis; type: ADME, organism-based; conditions: in vivo
[27] = Clearance in fasted BALB/c mouse at 5 mg/kg, iv administered upto 600 mins by HPLC-MS/MS analysis; type: ADME, organism-based; conditions: in vivo
[28] = target: T1, Histone-lysine N-methyltransferase, H3 lysine-79 specific; test: Inhibition of DOT1L in human SU-DHL-4 cells assessed as decrease in H3K79 methylation at 1 to 10 uM using histone H3 as substrate incubated for 3 days by immunoblotting assay; type: cell-based; conditions: dose 1-10 µM, time 3.0 day, DDE = dose-dependent effect
Target sequence in this assay (Q8TEK3 whole entry, looked up): as the sequence (Q8TEK3 whole entry) above

[29] = AUC (0 to t) in fasted BALB/c mouse at 20 mg/kg, iv administered upto 600 mins by HPLC-MS/MS analysis; type: ADME, organism-based; set-up: dose 20 mg/kg, time < 600 min, route iv; conditions: in vivo
[30] = Microsomal stability in BALB/c mouse liver microsomes assessed as intrinsic clearance; type: ADME, Microsome; conditions: read-out: CLH
[31] = target: T1, Histone-lysine N-methyltransferase, H3 lysine-79 specific; test: Inhibition of DOT1L in human OCI-AML5 cells assessed as decrease in H3K79 methylation at 1 to 10 uM using histone H3 as substrate incubated for 3 days by immunoblotting assay; type: cell-based; conditions: dose 1-10 µM, time 3.0 day, DDE = dose-dependent effect
Target sequence in this assay (Q8TEK3 whole entry, looked up): as the sequence (Q8TEK3 whole entry) above

[32] = target: T1, Histone-lysine N-methyltransferase, H3 lysine-79 specific; test: Inhibition of DOT1L in human MOLM-13 cells assessed as decrease in H3K79 methylation at 1 to 10 uM using histone H3 as substrate incubated for 5 days by immunoblotting assay; type: cell-based; conditions: dose 1-10 µM, time 5.0 day, DDE = dose-dependent effect

## CC(C)N(C[C@H]1C[C@@H](c2ccc3c(N)ncnn23)[C@H](O)[C@@H]1O)[C@H]1C[C@@H](CCc2nc3cc(C(C)(C)C)ccc3[nH]2)C1
[1]
  k el at 10 h: 0.000202 s⁻¹
[2]
  AUC(0-t) at 10 h: 5800 ng·h/mL
[3]
  Vd: 1.29 L/kg
[4]
  AUC(0-inf): 5850 ng·h/mL
[5]
  IC50: 0.0021 µM
[6]
  AUC(0-inf): 35000 ng·h/mL
MV4-11
  EC50: 1.7 µM
MOLM-13 [7]
  Activity: Active
[8]
  Tmax: 5 min
[9]
  clearance: 9.54 mL/min/kg
[10]
  k el at 10 h: 0.000123 s⁻¹
SUD4
  Activity: Active
MOLM-13 [11]
  EC50: 7.7 µM
MOLM-13 [12]
  Activity: Active
[13]
  Cmax: 20.6 µg/mL
[14]
  Activity: Dde
[15]
  Activity: Dde
[16]
  Activity: Dde
[17]
  Activity: Non-Toxic
[18]
  Tmax: 5 min
OCI-AML-3
  Activity: Active
[19]
  Vd: 1.18 L/kg
MOLM-13 [20]
  Activity: Active
[21]
  remaining at 40 min: 41%
SK-N-MC
  EC50: 8.8 µM
SU-DHL-5
  EC50: 9 µM
MOLM-13 [22]
  Activity: Active
[23]
  deltaG: -0.717 kcal/mol
[24]
  Cmax: 91.2 µg/mL
[25]
  half-life: 57.2 min
[26]
  half-life: 93.6 min
[27]
  clearance: 14.2 mL/min/kg
[28]
  Activity: Dde
[29]
  AUC(0-t) at 10 h: 34700 ng·h/mL
[30]
  microsomal CLint: 56 µL/min/mg
[31]
  Activity: Dde
[32]
  Activity: Dde
